Laboratory results published in patent US10251937B2, “Retro-inverso analogs of spadin display increased antidepressant effects” (MEDINCELL, priority 2014, dated 2019).
Square brackets hold non-standard residues; d marks the D form. Peptide text beside a SMILES is read from it.

How the values were obtained:
C57Bl/6J mice [1] = assay: Forced Swimming Test (FST) in naive mice; type: in vivo; settings: for immobility time, FST, duration of action: 10 naive animals
Description: Naïve male C57Bl/6J mice from 7 to 9 weeks old were used in all experiments (Janvier laboratory). Mice were housed 10 animals per cage under a 12-h light/12-h dark cycle (light on at 8:00 am), in a ventilated room at a temperature of 22±1° C. Animals had free access to water and food (A03; SAFE, Augy, France). All experiments were conducted according to policies on the care and use of laboratory animals of the Society for Neuroscience, and also with respect to national laws on animal use. The local Ethics Committee (CIEPAL) approved the experiments.
Stock solutions were prepared of 2 mg/mL (10^-3M) in distilled water, and before injection spadin solution was diluted in NaCl 0.9% to obtain the different concentrations used for treatments. Corticosterone (Sigma-Aldrich, France) was dissolved in drinking water at the concentration of 3.5 mg/L in the presence of 4.5 g/L of beta-cyclodextrin. […] Fluoxetine (Sigma-Aldrich, France) was dissolved in drinking water at the dose of 80 mg/L and administered during 21 days. For i.p. administration, fluoxetine (TEVA Santé, France) was dissolved in NaCl 0.9% at a concentration of 0.75 mg/mL. The amount injected was 3 mg/kg. Spadin and analogues were administered by i.v. injection. For acute treatment, drugs were administered in a single 100 μL bolus 30 min prior to the beginning of the behavioral tests. For subchronic treatment drugs were injected during 4 consecutive days and behavioral tests were performed on day 5, without additional injection.
The animals were individually placed in a non-escapable cylinder (height 30 cm, diameter 15 cm) filled with 15 cm-water at 22±1° C. The trial was conducted for 6 min. The total period of immobility was manually measured during the last 4 min of the test. A mouse was considered immobile when it remained floating with only slight movements to keep its head above water.

C57Bl/6J mice [2] = assay: Seizure induced by kainate; type: in vivo; settings: for effect against epilepsy seizure triggered by kainate: kainate 25 mg/Kg
Description: Kainate solutions were prepared in a solution of 140 mM NaCl (saline solution). […] Mice (n=10 per group) were monitored during 2 h for onset and extent of seizures. Six levels of seizure severity were defined as follows: 1—immobility, 2—head/neck movements, 3—clonic unilateral activity, 4—clonic bilateral activity, 5—generalized convulsions, and 6—death. Seizure severity was blindly scored (Moha ou Maati, H. et al. A human TREK-1/HEK cell line: a highly efficient screening tool for drug development in neurological diseases. PLoS One 6, e25602, (2011)). The seizure index was calculated by averaging the points for seizure activity in each group (n=10 per treatment).

## CC[C@@H](C)[C@@H](NC(=O)CNC(=O)[C@H](NC(=O)[C@@H](CO)NC(=O)[C@@H](Cc1c[nH]c2ccccc12)NC(=O)CNC(=O)[C@@H](CC(C)C)NC(=O)[C@@H](CCCNC(=N)N)NC(C)=O)C(C)C)C(=O)N1CCC[C@@H]1C(=O)NCC(=O)N[C@H](CO)C(=O)N[C@H](Cc1c[nH]c2ccccc12)C(=O)N[C@H](CCCNC(=N)N)C(=O)N1CCC[C@@H]1C(=O)N[C@H](CC(C)C)C(=O)N1CCC[C@@H]1C(=O)N[C@H](C)C(N)=O [Analog 3, Ac-rlGwsvGipGswrplpa-NH2] (Ac-[dR][dL]G[dW][dS][dV]G[dI][dP]G[dS][dW][dR][dP][dL][dP][dA]-NH2)
C57Bl/6J mice [1]; 10 μg/kg acute i.v., measured 30 minutes after injection, n=10
  immobility time, FST, acute treatment: 135.10 ± 8.11 s
C57Bl/6J mice [1]; 10 μg/kg i.v. once a day for 4 days, test on day 5
  immobility time, FST, subchronic treatment: 114.9 ± 9.82 s
C57Bl/6J mice [1]; 1 hour after i.v. injection
  immobility time, FST, duration of action: 123.4 ± 7.0 s
C57Bl/6J mice [1]; 16 hours after i.v. injection
  immobility time, FST, duration of action: 129.6 ± 12.7 s
C57Bl/6J mice [1]; FST (FIG. 4B)
  duration of activity in vivo compared to Analog 8: active for longer duration in vivo
C57Bl/6J mice [2]; 1 μg/Kg i.v.
  effect against epilepsy seizure triggered by kainate: no protective effect
C57Bl/6J mice [2]; 10 μg/Kg i.v.
  effect against epilepsy seizure triggered by kainate: important protective effect
C57Bl/6J mice [2]; 10 μg/Kg i.v., kainate 25 mg/Kg i.p.
  mice among 10 that reached the two less severe stages of epilepsy seizures (immobility, head or neck movements): two
